Assay results: US6515001B2, “IL-8 receptor ligands-drugs for inflammatory and autoimmune diseases” (Chemokine Therapeutic Corporation, priority 2001, dated 2003)
pIC50: −log10 of the molar value.

Columns and labels:
[1] = target: IL-8 receptors (CXCR-1 and CXCR-2); experiment: Inhibition of binding of I125 labeled IL-8 to IL-8 receptors; conditions: I125 labeled IL-8 as competitor; read-out: IC50, inhibition of binding of IL-8 to CXCR-1 and/or CXCR-2
Description: This example discloses the ability of compounds of the invention, such as benzopyrone derivatives, such as CTCM192 (1), to inhibit binding of IL-8 to IL-8 receptors (CXCR-1 and CXCR-2). The binding studies were conducted using I^125 labeled IL-8 as competitor.

[2] = test system: IL-8-induced [Ca2+]i mobilization in THP1 cells; experiment: Inhibition of IL-8-induced intracellular [Ca2+]i mobilization in THP1 cells; type: cell-based; conditions: Homo sapiens, THP-1; Fura-2,AM loaded THP1 cells, incubated 60 min prior to induction by 12 nM IL-8
Description: A rapid, transient rise in the free cytosolic Ca^2+ concentration ([Ca^2+])i) is one of the events associated with the Chemokine mediated induction of the associated receptors and is assumed to be involved in many of the subsequent cellular reactions. Both Ca^2+ release from intracellular stores and Ca^2+ influx from the extracellular space contribute to the rise in [Ca^2+]i. […] Fura-2,AM loaded THP1 cells were incubated with CTCM192 for 60 min prior to induction of [Ca^2+]i mobilization by 12 nM IL-8. Results illustrate the effect of CTCM192 (1) on IL-8-induced Ca^2+ mobilization.
In accordance with this aspect of the invention, the benzopyrone derivative, Geetokine, such as compound 1 or corresponding salts may be used for the treatment of a wide range of inflammatory diseases such as gout, arthritis osteoarthritis, rheumatoid arthritis, and ARDS.

pIC50 [1]: 4.35 | pIC50 [2]: 6.47
Structure (SMILES): Cc1csc(-c2coc3cc(OC(=O)C(Cc4ccccc4)NC(=O)OCc4ccccc4)cc(C)c3c2=O)n1 (centres unmarked) [Compound 1, [7-[5-methylbenzopyrone-5′(3′-methyl)-thiazole]-phenylalanine-benyl ester]]
